Patent US20120282187A1 (BOEHRINGER INGELHEIM INTERNATIONAL GMBH, priority 2008, published 2012)
“And” between values parts separate entries of the source, which are not always exact repeats. Equal values may be shown once. “Also recorded” adds a separate entry of the source. Read-outs that look alike come from different tables or passages of the source.

Legend:
[1] = system: patients with chronic atrial fibrillation; experiment: PETRO phase 2 12-week dose finding study; format: in vivo, human; conditions: in vivo
From the text: Primary endpoints were bleeding events and changes in D-dimer. […] Minor bleeding was dose related.

[2] = system: patients with atrial fibrillation at risk of stroke; experiment: RELY clinical trial (Randomized Evaluation of Long-term Anticoagulation Therapy); format: in vivo; conditions: for Stroke, systemic embolism, pulmonary embolism, myocardial infarction death or major bleed, Rate: net benefit
From the text: The primary study outcome was stroke or systemic embolism. The primary safety outcome was major hemorrhage. Secondary outcomes were stroke, systemic embolism and death. […] All other bleeding was considered minor.
All analyses were based on intention-to-treat.

[3] = Clinical pharmacokinetics and pharmacodynamics of dabigatran etexilate; format: in vivo
From the text: Ezekowitz M D, et al., Dabigatran with or without concomitant aspirin compared with warfarin alone in patients with nonvalvular atrial fibrillation (PETRO study), Am. […] The PETRO study is described below.
As noted above, management of warfarin therapy is complex, and failure to adequately monitor patients is associated with risk. […] It also interacts with many common foods, drugs and alcohol which alter its therapeutic effect, putting patients at risk of either a bleeding or thrombotic event. Therefore, warfarin therapy requires careful individualized dosing and frequent monitoring. The significant limitations of VKAs have created a need for an oral anticoagulant with a rapid onset of action, minimal drug interactions, and a predictable anticoagulation effect that needs no monitoring.
Peak levels are seen within 2-3 hours of oral administration. […] Steady-state is reached within 2-3 days with a twice daily regimen. […] The remainder undergoes conjugation with glucuronic acid to form acylglucuronides which are excreted primarily in the bile.

[4] = system: activated partial thromboplastin time (aPTT), ecarin clotting time, and thrombin clotting time; experiment: Clotting time tests
From the text: The anticoagulant effects parallel plasma concentrations.

[5] = system: patients with atrial fibrillation
Method: The PETRO-Ex study was conducted in 52 centers in the United States, Denmark, The Netherlands, and Sweden.
PETRO-Ex began while the PETRO study was ongoing and investigators were initially kept blinded to patient treatment group until PETRO was completed. Unblinding investigators to patient treatment was possible thereafter.
Data were summarized descriptively; no hypothesis was to be tested. Events were analyzed on the basis of the treatment at onset. Incidences were reported as of patients with events as well as normalized to 100 patient-years on the respective treatment.
Patients who were down titrated to 50 mg q.d. based on a glomerular filtration rate≦50 mL/min during PETRO were excluded from the long-term trial; patients down-titrated in other dose levels remained on the q.d. treatment at that dose.
The total exposure reflects both trials, PETRO and PETRO-Ex, together.

[6] = individual patients with LFT abnormalities, # = with concomitant Bilirubin elevation to >2xULN

[H]/N=C(/N)c1ccc(NCc2nc3cc(C(=O)N(CCC(=O)O)c4ccccn4)ccc3n2C)cc1 [Dabigatran]
change in D-dimer levels [1]: comparable to warfarin | Myocardial Infarction, Rate ([2]; 110 mg b.i.d.): 0.73 /100 Person Years | Rates of hemorrhagic stroke ([2]; 110 mg b.i.d.): 0.12 % per year | Stroke, Ischemic or Unspecified, Rate ([2]; 110 mg b.i.d.): 1.35 /100 Person Years | net benefit-risk outcome (major vascular events, major bleeding and death) rate ([2]; 110 mg b.i.d.): 7.37 % per year | Myocardial Infarction, Rate ([2]; 150 mg b.i.d.): 0.74 /100 Person Years | Rates of hemorrhagic stroke ([2]; 150 mg b.i.d.): 0.10 % per year | net benefit-risk outcome (major vascular events, major bleeding and death) rate ([2]; 150 mg b.i.d.): 7.22 % per year | rates of stroke and systemic embolism compared to warfarin ([2]; 150 mg b.i.d.): lower rates | First Hospitalization, RR ([2]; Dabigatran 110 mg vs. Warfarin): 0.92 | Myocardial Infarction, RR ([2]; Dabigatran 110 mg vs. Warfarin): 1.35 | Non-disabling Stroke Modified Rankin 0-2, RR ([2]; Dabigatran 110 mg vs. Warfarin): 0.87 | Pulmonary embolism, RR ([2]; Dabigatran 110 mg vs. Warfarin): 1.26 | Stroke or systemic embolism, RR ([2]; Dabigatran 110 mg vs. Warfarin): 0.91 | Stroke, Hemorrhagic, RR ([2]; Dabigatran 110 mg vs. Warfarin): 0.31 | Stroke, Ischemic or Unspecified, RR ([2]; Dabigatran 110 mg vs. Warfarin): 1.12 | Stroke, RR ([2]; Dabigatran 110 mg vs. Warfarin): 0.92 | Stroke, Ischemic or Unspecified, RR ([2]; Dabigatran 150 mg vs. 110 mg): 0.68 | Stroke, RR ([2]; Dabigatran 150 mg vs. 110 mg): 0.70 | First Hospitalization, RR ([2]; Dabigatran 150 mg vs. Warfarin): 0.97 | Myocardial Infarction, RR ([2]; Dabigatran 150 mg vs. Warfarin): 1.38 | Non-disabling Stroke Modified Rankin 0-2, RR ([2]; Dabigatran 150 mg vs. Warfarin): 0.62 | Pulmonary embolism, RR ([2]; Dabigatran 150 mg vs. Warfarin): 1.61 | Stroke or systemic embolism, RR ([2]; Dabigatran 150 mg vs. Warfarin): 0.66 | Stroke, Hemorrhagic, RR ([2]; Dabigatran 150 mg vs. Warfarin): 0.26 | Stroke, Ischemic or Unspecified, RR ([2]; Dabigatran 150 mg vs. Warfarin): 0.76 | Stroke, RR ([2]; Dabigatran 150 mg vs. Warfarin): 0.64 | primary outcome compared to warfarin ([2]; both doses (110 mg and 150 mg b.i.d.)): non-inferior to warfarin | Stroke, systemic embolism, pulmonary embolism, myocardial infarction death or major bleed, Rate ([2]; 110 mg b.i.d.): 7.37 /100 Person Years | Stroke, systemic embolism, pulmonary embolism, myocardial infarction death or major bleed, Rate ([2]; 150 mg b.i.d.): 7.22 /100 Person Years | plasma half life ([3]; after multiple doses): 12 to 17 h | time to steady-state ([3]; human, in vivo): 2 to 3 days | time to peak levels ([3]; oral administration): 2 to 3 h | prolongation of activated partial thromboplastin time (aPTT), ecarin clotting time, and thrombin clotting time [4]: dose dependent prolongation | fatal major bleeds, number ([5]; 150 mg b.i.d.): 4 | fatal major bleeds, number ([5]; 300 mg q.d.): 1 | fatal bleeding events ([5]; all doses): 0.5 % per year | fatal major bleeds, number ([5]; all doses): five | intracranial bleed rate ([5]; all doses): 0.4 % per year | Final Outcome/Comment ([5]; individual patients with LFT abnormalities): Fatal; also recorded: Recovered | LFT abnormality ALT/ULN [5, 6]: >5x (4×) and >5x^# (2×) and >3x (5×) and >3x^# | LFT abnormality AST/ULN [5, 6]: >5x^# (4×) and >5x (4×) and >3x (5×) | LFT abnormality resolved after stopping of dabigatran, number of cases ([5]; of the 16 on treatment cases): 5 | LFT abnormality resolved with continuation of dabigatran, number of cases ([5]; of the 16 on treatment cases): 10
